In patent US6337325B1, “Combined preparation for the therapy of immune diseases” (Hoechst Aktiengesellschaft, priority 1994, dated 2002):
Like-named read-outs stand apart in the source and are kept apart here.

Assays:
[1] = system: T lymphocytes stimulated via CD28/PMA; assay: T lymphocyte proliferation (3H-thymidine), stimulation via CD28/PMA; type: cell-based, human
Method: (§1) For all the in vitro tests, peripheral blood mononuclear cells (PBMC) were obtained from the blood of healthy donors by density gradient centrifugation in Ficoll-Hypaque (Pharmacia, Uppsala). This isolation step separated monocytes and lymphocytes from the other blood constituents. Further working-up of this PBMC fraction was carried out in accordance Ad with the requirements of the test preparations described below.
(§2) The PBMC fraction was further fractionated to give pure T lymphocytes. This was done using Lympho-KWIK-T, a mixture of monoclonal antibodies from anti-monocytes and anti-B cells and complement, together with a mixture of monoclonal anti-NK and anti-monocyte antibodies with Leu 11 b (anti-CD16, IgM) and Leu 7 (anti-CD57, IgM) (One Lambda Inc., Los Angeles, Calif., USA). The isolation and purification of the T lymphocytes from the PBMC fraction was effected by means of the following process steps:
(§3) Monocytes are removed by cold agglutination.
30×10^6 of the cells obtained are incubated with 0.8 ml of Lympho-KWIK-T for 1 hour at 37° C.
The cells are washed three times and then incubated for 30 minutes at 4° C. with the mixture of monoclonal anti-NK and anti-monocyte antibodies.
The cells are washed once and re-incubated with 0.8 ml of Lympho-KWIK-T for 1 hour at 37° C.
After 64 h of incubation the cells were treated in each case with 1 μCi of ^3H-thymidine; 8 h later they were collected on glass fiber filters and the incorporated radioactivity was measured in a β counter.
The percentage inhibition of the T lymphocyte proliferation by the test substances was compared with a control not containing test substance, subtracting a basal value without monoclonal antibodies. The mean value from 4 parallel preparations was used for the evaluation.

[2] = system: PHA-induced release of IL-2 from peripheral blood mononuclear cells; assay: Inhibition of PHA-induced release of IL-2 from PBMC (CTL-L6 proliferation read-out); type: cell-based; conditions: Homo sapiens
Method: as §1
(§4) The resulting PBMC were incubated on microtiter plates together with phythemagglutinin (PHA, 5 μg/ml). […] Incubation was carried out at 37° C. in 5% CO2 with protection from the light. After 20 hours (h) (TNFα determination), 24 h (IL-2 determination) or 120 h (IFNγ determination), the cell supernatants were tested for cytokine release. TNFα was determined via its cytotoxicity to L929 cells, IL-2 was quantified via the proliferation of CTL-L6 cells and IFNγ was determined using a sandwich ELISA.

[3] = system: PHA-induced release of TNFα from peripheral blood mononuclear cells; assay: Inhibition of PHA-induced release of TNFα from PBMC (L929 cytotoxicity read-out); type: cell-based; conditions: Homo sapiens
Method: as §1, §4
The following test examined the dependence of the inhibition of PHA-induced cytokine formation on the type of so-called “calcium antagonist” added.

[4] = system: patient with pronounced psoriasis; assay: Topical application to a single patient with pronounced psoriasis, subjective symptom scores; type: in vivo, human; conditions: after a 6-week application
Method: The effect of the topical application of a combination according to the invention to a single patient with pronounced psoriasis was studied in a parallel comparison. For this purpose the test substances pentoxifylline and diltiazem, dissolved in 30 ml of polypropylene glycol/ethanol/water (1:1:1. v/v), were incorporated, individually or together, in a final concentration of 2% (pentoxifylline) or 1% (diltiazem), into a commercially available creamy skin care product (Nivea lotion), ultimately giving the following 4 different formulations:
A) lotion without test substance (=vehicle control)
B) lotion with 2% of pentoxifylline
C) lotion with 1% of diltiazem
D) lotion with 2% of pentoxifylline+1% of diltiazem
Twice a day for 6 weeks, these 4 formulations were applied locally, with rubbing, to areas of skin on the patient's trunk which were affected by pronounced symptoms of psoriasis and had previously been precisely defined, particular care being taken to ensure that the same formulation was always applied to the same area of skin. The therapeutic result was monitored visually and evaluated by means of the following subjective scores: […]

[5] = system: T lymphocytes stimulated via CD3/PMA; assay: T lymphocyte proliferation (3H-thymidine), stimulation via CD3/PMA; type: cell-based; conditions: Homo sapiens, 72 h
Method: as §1, §2, §3
30×10^6 of the cells obtained are incubated with 0.8 ml of Lympho-KWIK-T for 1 hour at 37° C. […]
After 64 h of incubation the cells were treated in each case with 1 μCi of ^3H-thymidine; 8 h later they were collected on glass fiber filters and the incorporated radioactivity was measured in a β counter. […]

[6] = system: PHA-induced release of IFNγ from peripheral blood mononuclear cells; assay: Inhibition of PHA-induced release of IFNγ from PBMC (sandwich ELISA); type: cell-based; conditions: Homo sapiens, PHA 5 μg/ml, 120 h
Method: as §1, §4

Structure (SMILES)	inhibition at 40 µM ([1]; Homo sapiens, T-lymphocyte, 40 μmol/l, T lymphocytes, 72 h)	inhibition at 50 µM ([2]; read-out: IL-2 % inhibition, 50 μmol/l final concentration, PHA 5 μg/ml, 24 h)	inhibition at 50 µM ([3]; 50 μmol/l final concentration, PHA 5 μg/ml, 20 h, read-out: TNFα % inhibition)	inhibition at 50 µM ([3]; Table 2, pentoxifylline alone, 50 μmol/l, read-out: percentage inhibition of the PHA-induced release of TNFα, pentoxifylline)	psoriasis symptoms relative to the initial situation, in words [4]	inhibition at 40 µM ([5]; 40 μmol/l)	inhibition at 50 µM ([6]; 50 μmol/l final concentration)	inhibition at 0.1 µM ([1]; Homo sapiens, T-lymphocyte, 0.1 μmol/l, T lymphocytes, 72 h)	activity on T lymphocyte activation via the CD28-dependent mechanism, in words ([1]; single substance, stimulation via CD28)	inhibition at 0.1 µM ([2]; read-out: IL-2 % inhibition, 0.1 μmol/l final concentration, PHA 5 μg/ml, 24 h)	inhibition at 0.1 µM ([3]; 0.1 μmol/l final concentration, PHA 5 μg/ml, 20 h)	inhibition at 0.1 µM ([5]; 0.1 μmol/l)	inhibition at 0.1 µM ([6]; 0.1 μmol/l final concentration)	inhibition at 10 µM ([3]; Table 2, test substance alone, 10 μmol/l, read-out: percentage inhibition of the PHA-induced release of TNFα, test substance alone)
CC(=O)CCCCn1c(=O)c2c(ncn2C)n(C)c1=O [pentoxifylline]	28 ± 8%	14 ± 9%	28 ± 10%	28 ± 10%	improved only moderately	21 ± 7%	20 ± 9%	–	–	–	–	–	–	–
CCCC(=O)Nc1ncnc2c1ncn2[C@@H]1O[C@@H]2COP(=O)(O)O[C@H]2[C@H]1OC(=O)CCC [db-cAMP, dibutyryl-cAMP]	–	–	–	–	–	–	–	11 ± 6%	practically inactive	12 ± 4%	31 ± 13%	16 ± 6%	15 ± 8%	–
COc1ccc([C@@H]2Sc3ccccc3N(CCN(C)C)C(=O)[C@@H]2OC(C)=O)cc1 [Diltiazem, diltiazem]	–	–	–	–	practically no visible difference	–	–	–	–	–	–	–	–	39 ± 13%
